The values below come from patent publication US9464106B2, “Oligonucleotides useful for detecting and analyzing nucleic acids of interest” (Exiqon A/S, priority 2002, dated 2016).

l = locked nucleic acid (LNA); [5mC] = 5-methylcytosine; d = 2'-deoxy (DNA)

The subject of this data set is yeast HSP78 (YDR258C) sequence. The data set is described as follows: Duplex melting temperatures of HSP78 25-mer capture probes (UV spectrophotometer). The conditions noted are these: 25-mer capture probe duplex with complementary target; design PM = perfectly matched, MM = single mismatch; DNA, LNA_T (T) or LNA_TC (TC) substituted.
With “12680 (DNA ACCATCATCACCGAACTTTGTGTCG; DNA, backbone not given here) [compound 12680]”, the “Average duplex melting temp.” value stood at 63.6 °C.

On to “12681 (DNA CAATGATCGTGTAACGGAAATCAAC; DNA, backbone not given here) [compound 12681]”, for which the “Average duplex melting temp.” value is 59.3 °C.

On to “12682 (DNA TGGCCTAGGGAAACGGTCAGCTTAC; DNA, backbone not given here) [compound 12682]”, for which the “Average duplex melting temp.” value is 65.2 °C.

As for “12683 (DNA TTGGAAACATCGCGGTGCGCTTTTT; DNA, backbone not given here) [compound 12683]”, the “Average duplex melting temp.” value was 61.5 °C.

In the case of “12684 (DNA GAAACATCGGGGAGCGCTTTTTCAA; DNA, backbone not given here) [compound 12684]”, the “Average duplex melting temp.” value came to 63.8 °C.

Turning to “12685 (DNA GACAGCCTCAGTAAATTGGCCACCA; DNA, backbone not given here) [compound 12685]”, the “Average duplex melting temp.” value is 64.8 °C.

For the substance “12686 (DNA CCGATTAAACGACAGACAGTATGCT; DNA, backbone not given here) [compound 12686]”, the “Average duplex melting temp.” value turned out to be 57.1 °C.

Take “12687 (DNA ATCAAATAGGAAATCAGCTAAAGCC; DNA, backbone not given here) [compound 12687]”: the “Average duplex melting temp.” value was found to be 54.3 °C.

For “12688 (DNA GACCTAAGAACAAAAAGCTGGCAAT; DNA, backbone not given here) [compound 12688]”, the “Average duplex melting temp.” value was found to be 58.2 °C.

In the case of “12689 (DNA AAATAGCAGCAAAGGCCTCGTCTTG; DNA, backbone not given here) [compound 12689]”, the “Average duplex melting temp.” value stood at 64 °C.

For the substance “12690 (DNA ATAGCAGCAATGCCCTCGTCTTGGC; DNA, backbone not given here) [compound 12690]”, the “Average duplex melting temp.” value was 62.9 °C.

With “12691 (DNA GCAATGGCCTCGACTTGGCCAACGA; DNA, backbone not given here) [compound 12691]”, the “Average duplex melting temp.” value is 68.5 °C.

Consider “12692 (DNA GATGAACTCAGGAGGATAGGATCTT; DNA, backbone not given here) [compound 12692]”, for which the “Average duplex melting temp.” value stood at 58.2 °C.

On to “12693 (DNA TCAGTTAGCCAAACCTTCGCTTCAT; DNA, backbone not given here) [compound 12693]”, for which the “Average duplex melting temp.” value came to 61.4 °C.

With “12694 (DNA GTTGCCATGGAGATCAAAATCTGTC; DNA, backbone not given here) [compound 12694]”, the “Average duplex melting temp.” value was 60 °C.

Regarding “12695 (DNA AGACGTACAGCAACAGAAATAGCAG; DNA, backbone not given here) [compound 12695]”, the “Average duplex melting temp.” value stood at 61.2 °C.

With “12696 (DNA TTTGGTAGCACGTCAAGCTTAGTAT; DNA, backbone not given here) [compound 12696]”, the “Average duplex melting temp.” value was 59.2 °C.

Turning to “12697 (DNA ATAAAGCTGGCATTAGGTCTCTTTT; DNA, backbone not given here) [compound 12697]”, the “Average duplex melting temp.” value turned out to be 58.4 °C.

As for “12698 (DNA TTTTTCGGCCAATCGATCTTGAATT; DNA, backbone not given here) [compound 12698]”, the “Average duplex melting temp.” value was found to be 58.8 °C.

As for “12699 (DNA CACTCTAACAGTATCGCCGTTTCTA; DNA, backbone not given here) [compound 12699]”, the “Average duplex melting temp.” value is 61.1 °C.

With “12700 (DNA TCAATGGCCTTGGACCATATAATTG; DNA, backbone not given here) [compound 12700]”, the “Average duplex melting temp.” value was 59.5 °C.

For “12701 (DNA AAAACGACAGCAAAAGGCTTTCTTC; DNA, backbone not given here) [compound 12701]”, the “Average duplex melting temp.” value came out at 58.8 °C.

Take “12702 (DNA ATTGACCTCAAATCTTTCTTGGATA; DNA, backbone not given here) [compound 12702]”: the “Average duplex melting temp.” value is 54.5 °C.

Regarding “12703 (DNA CCCAACTTTGTGACGTTTAATAAAA; DNA, backbone not given here) [compound 12703]”, the “Average duplex melting temp.” value came to 56.2 °C.

Regarding “12704 (DNA ACCATCATCACCGAACTTTGTGTCG; DNA at ACG, LNA at T, backbone not given here) [compound 12704]”, the “Average duplex melting temp.” value was 74 °C.

On to “12705 (DNA CAATGATCGTGTAACGGAAATCAAC; sugars from the 5' end dddlddlddlddddddddddldddd, backbone not given here) [compound 12705]”, for which the “Average duplex melting temp.” value turned out to be 65.2 °C.

For the substance “12706 (DNA TGGCCTAGGGAAACGGTCAGCTTAC; DNA at ACG, LNA at T, backbone not given here) [compound 12706]”, the “Average duplex melting temp.” value was 71.6 °C.

“12707 (DNA TTGGAAACATCGCGGTGCGCTTTTT; sugars from the 5' end lldddddddldddddlddddlllld, backbone not given here) [compound 12707]”: the “Average duplex melting temp.” value was determined as 68.6 °C.

On to “12708 (DNA GAAACATCGGGGAGCGCTTTTTCAA; sugars from the 5' end d6 l1 d10 l5 d3, backbone not given here) [compound 12708]”, for which the “Average duplex melting temp.” value worked out at 69.9 °C.

Consider “12709 (DNA GACAGCCTCAGTAAATTGGCCACCA; sugars from the 5' end d7 l1 d7 l2 d8, backbone not given here) [compound 12709]”, for which the “Average duplex melting temp.” value turned out to be 68.8 °C.

For the substance “12710 (DNA CCGATTAAACGACAGACAGTATGCT; sugars from the 5' end ddddlldddddddddddddldlddd, backbone not given here) [compound 12710]”, the “Average duplex melting temp.” value stood at 63.5 °C.

Consider “12711 (DNA ATCAAATAGGAAATCAGCTAAAGCC; sugars from the 5' end dlddddldddddddddddldddddd, backbone not given here) [compound 12711]”, for which the “Average duplex melting temp.” value was 58.1 °C.

As to “12712 (DNA GACCTAAGAACAAAAAGCTGGCAAT; sugars from the 5' end d4 l1 d13 l1 d6, backbone not given here) [compound 12712]”, the “Average duplex melting temp.” value is 61.1 °C.

On to “12713 (DNA AAATAGCAGCAAAGGCCTCGTCTTG; DNA at ACG, LNA at T, backbone not given here) [compound 12713]”, for which the “Average duplex melting temp.” value was found to be 70.4 °C.

With “12714 (DNA ATAGCAGCAATGCCCTCGTCTTGGC; DNA at ACG, LNA at T, backbone not given here) [compound 12714]”, the “Average duplex melting temp.” value came out at 71.3 °C.

In the case of “12715 (DNA GCAATGGCCTCGACTTGGCCAACGA; DNA at ACG, LNA at T, backbone not given here) [compound 12715]”, the “Average duplex melting temp.” value was 73.7 °C.

As for “12716 (DNA GATGAACTCAGGAGGATAGGATCTT; sugars from the 5' end ddlddddlddddddddlddddldld, backbone not given here) [compound 12716]”, the “Average duplex melting temp.” value is 64.9 °C.

As to “12717 (DNA TCAGTTAGCCAAACCTTCGCTTCAT; sugars from the 5' end ldddlldddddddddlldddllddd, backbone not given here) [compound 12717]”, the “Average duplex melting temp.” value was found to be 69.4 °C.

On to “12718 (DNA GTTGCCATGGAGATCAAAATCTGTC; sugars from the 5' end dllddddldddddddddddldldld, backbone not given here) [compound 12718]”, for which the “Average duplex melting temp.” value turned out to be 69.2 °C.

In the case of “12719 (DNA AGACGTACAGCAACAGAAATAGCAG; sugars from the 5' end d5 l1 d13 l1 d5, backbone not given here) [compound 12719]”, the “Average duplex melting temp.” value turned out to be 65 °C.

For “12720 (DNA TTTGGTAGCACGTCAAGCTTAGTAT; sugars from the 5' end lllddlddddddddddddllddldd, backbone not given here) [compound 12720]”, the “Average duplex melting temp.” value was 68.6 °C.

For “12721 (DNA ATAAAGCTGGCAAAAGGTCTCTTTT; sugars from the 5' end dldddddldddddddddldldllld, backbone not given here) [compound 12721]”, the “Average duplex melting temp.” value worked out at 67.2 °C.

As for “12722 (DNA TTTTTCGGCCAATCGATCTTGAATT; sugars from the 5' end ldllldddddddddddldlldddld, backbone not given here) [compound 12722]”, the “Average duplex melting temp.” value was 65.9 °C.

Take “12723 (DNA CACTCTAACAGTATCGCCGTTTCTA; sugars from the 5' end dddldldddddddddddddllldld, backbone not given here) [compound 12723]”: the “Average duplex melting temp.” value stood at 69.7 °C.

“12724 (DNA TCAATGGCCTTGGACCATATAATTG; DNA at ACG, LNA at T, backbone not given here) [compound 12724]”: the “Average duplex melting temp.” value worked out at 69.7 °C.

Take “12725 (DNA AAAACGACAGCAAAAGGCTTTCTTC; sugars from the 5' end d18 l3 d1 l2 d1, backbone not given here) [compound 12725]”: the “Average duplex melting temp.” value was determined as 65.9 °C.

On to “12726 (DNA ATTGACCTCAAATCTTTCTTGGATA; sugars from the 5' end dllddddlddddddllldlldddld, backbone not given here) [compound 12726]”, for which the “Average duplex melting temp.” value was found to be 65.1 °C.

“12727 (DNA CCCAACTTTGTGACGTTTAATAAAA; DNA at ACG, LNA at T, backbone not given here) [compound 12727]”: the “Average duplex melting temp.” value was 66.5 °C.

In the case of “12728 (DNA ACCATCATCACCCAACCTTGTGTCG; sugars from the 5' end dlddlddldddddddddlddlddld, [5mC] at 2, 24, backbone not given here) [compound 12728]”, the “Average duplex melting temp.” value came out at 70.2 °C.
